The source of these data is patent US7176234B2, “Derivatives of gambogic acid and analogs as activators of caspases and inducers of apoptosis” (priority 2002, dated 2007).

“Also recorded” adds a separate entry of the source. Like-named read-outs stand apart in the source and are kept apart here.

One series deals with ICR (CD-1) mice. Put plainly: Maximum tolerated dose (MTD) in mice, I.V. It is filed as in vivo. The conditions noted are these: mouse, in vivo. The method, then: For acute toxicity studies, 3 ICR (CD-1) mice were used per each dose group. Animals were given a single bolus injection in the tail vein with approximately 100 μl volume of compound formulation or vehicle formulation. Mice body weights were measured daily along with daily observation for clinical abnormalities. The maximum tolerated dose (MTD) was defined as the dose that results in less than 10% decrease in body weight with no clinical abnormalities.
For multiple dose studies, the animals were dosed once a day for 5 days.
Table IV summarizes the MTD of gambogic acid and methyl 9,10-dihydro-10-morpholinyl-gambogate in mice by I.V. administration.

Series [1] in a line: Conversion of methyl 9,10-dihydro-10-morpholinyl-gambogate to methyl gambogate in biological media (HPLC). In kind it is physicochemical. The method, then: A solution of methyl 9,10-dihydro-10-morpholinyl-gambogate in 87.5% RPMI 1640 biological Media (Invitrogen Corporation, Carlsbad, Calif.), 5.6% EtOH, 1.3% DMSO, and 5.6% Cremophor EL at a concentration of 5 mg/ml was stored at 37° C. The amount of methyl 9,10-dihydro-10-morpholinyl-gambogate (compound B) and methyl gambogate (compound C) was measured by integration of the peak area. The HPLC was run in the Beckman System Gold with 32 Karate software under the following conditions: […]

Series [2] has as its system SW620 (colorectal cancer). Put plainly: Efficacy in human tumor xenograft mouse model SW620. In kind it is in vivo, human tumor in CD1 nu/nu mice. The conditions noted are these: 75 mg/kg, every day, I.V. Here is the method: (§1) CD1 nu/nu mice were used. Viable tumor bits of transplantable human xenografts approximately 50 mg of trocar or cultured human tumor cells (nx106 cells?) were implanted subcutaneously into the flank region of mice and tumors were allowed to grow to the desired average size of 100 mg. The mice were measured for tumor size and those within the accepted tumor range of 75–125 mg, were randomized into control and treatment groups with 8–9 mice per group. Treatment was initiated on these groups which have an average starting tumor size of 100 mg. The control group was injected with the vehicle used to dissolve the drug. Injections were I.V. via the tail vein. Tumor measurements were taken every other day along with weights of animals and all animals were observed daily for survival. Tumor size was calculated by the equation of: Tumor volume=(length×width^2)/2.
In general terms: In xenograft studies the graft and the host belong to different species.

In series [3] the test system is human tumor xenograft models. Put plainly: Efficacy studies in human tumor xenograft models (text summary, model not named). It is filed as in vivo, human tumor in nu/nu mice. Here is the method: as §1
Series [4] is described as follows: Pharmacokinetic studies in mice (plasma, LC/MS/MS). It is filed as in vivo, ICR mice. Particulars: mice, single I.V. dose 50 mg/kg. Here is the method:
ICR mice were administered a single dose of drug into the tail vein. At each time point, 3 animals were sacrificed and the blood was withdrawn by cardiac puncture. The blood cells were spun down and the plasma was collected and frozen immediately in liquid nitrogen. For sample processing, the plasma was thawed and extraction solvent was added along with an internal standard to assess recoveries. The samples were vortexed followed by centrifugation, and the extraction solution was collected and subjected to LC/MS/MS analysis to identify and quantitate the compound plasma concentration. The levels of compound from the three animals at each time point were averaged and the pharmacokinetic parameters calculated using WinNonLin program. Table V summarized the major PK parameters.

The test system of another series is MX-1 (Breast cancer). Description: Efficacy in human tumor xenograft mouse model MX-1. It is filed as in vivo, human tumor in CD1 nu/nu mice. Particulars: MX-1 xenograft, 50 mg/kg, every day, I.V. The method, then:
as §1

For a further series, the system named is T-47D. Put plainly: Caspase cascade activation / apoptosis induction assay (N-(Ac-DEVD)-N'-ethoxycarbonyl-R110 substrate) in T-47D cells. In kind it is cell-based, Human. The conditions noted are these: T47D cells. Here is the method: Human breast cancer cell lines T-47D and ZR-75-1 were grown according to media component mixtures designated by American Type Culture Collection+10% FCS (Invitrogen Corporation), in a 5% CO2-95% humidity incubator at 37° C. T-47D and ZR-75-1 cells were maintained at a cell density between 30 and 80% confluency and for HL-60 at a cell density of 0.1 to 0.6×10^6 cells/ml. Cells were harvested at 600×g and resuspended at 0.65×10^6 cells/mL into appropriate media+10% FCS. An aliquot of 45 μl of cells was added to a well of a 96-well microtiter plate containing 5 μl of a 10% DMSO in RPMI-1640 media solution containing 1.6 to 100 μM of gambogic acid or other test compound (0.16 to 10 μM final). An aliquot of 45 μl of cells was added to a well of a 96-well microtiter plate containing […] of a 10% DMSO in RPMI-1640 media solution without test compound as the control sample. The samples were mixed by agitation and then incubated at 37° C. for 24 h in a 5% CO2-95% humidity incubator. After incubation, the samples were removed from the incubator and 50 μl of a solution containing 20 μM of N-(Ac-DEVD)-N′-ethoxycarbonyl-R110 fluorogenic substrate SEQ ID NO:1 (Cytovia, Inc.; U.S. Pat. No. 6,335,429), 20% sucrose (Sigma), 20 mM DTT (Sigma), 200 mM NaCl (Sigma), 40 mM Na PIPES buffer pH 7.2 (Sigma), and 500 μg/mL lysolecithin (Calbiochem) was added. The samples were mixed by agitation and incubated at room temperature. Using a fluorescent plate reader (Model 1420 Wallac Instruments), an initial reading (T=0) was made approximately 1–2 min after addition of the substrate solution, employing excitation at 485 nm and emission at 530 nm, to determine the background fluorescence of the control sample. After approximately 3 h of incubation, the samples were read for fluorescence as above (T=3 h).
The Relative Fluorescence Unit values (RFU) were used to calculate the sample readings as follows: RFU(T=3h)−Control RFU(T=0)=Net RFU(T=3h)
The activity of caspase cascade activation was determined by the ratio of the net RFU value for derivatives of gambogic acid to that of control samples. The EC50 (nM) was determined by a sigmoidal dose-response calculation (Prism 2.0, GraphPad Software Inc.).
Methyl 9,10-dihydro-10-morpholinyl-gambogate and gambogic acid were assayed as described in Example 28 in T47D cells. The samples of cells and testing compound were incubated for 5 h and 24 h, respectively. Table II summarizes the caspase activity (Ratio) and potency (EC50) of methyl 9,10-dihydro-10-morpholinyl-gambogate (compound B) in the 5 h and 24 h assays, in comparison with that of gambogic acid (compound A).

As a reminder, the EC50 is the concentration giving half of the maximal effect. For the compound `COC(=O)C(C)=CCC12OC(C)(C)C3CC(C1=O)C(N1CCOCC1)C1C(=O)c4c(O)c5c(c(CC=C(C)C)c4OC132)OC(C)(CCC=C(C)C)C=C5` (stereo not drawn) [B, Methyl 9,10-dihydro-10-morpholinyl-gambogate], in the series with ICR (CD-1) mice, the “Acute MTD” value was over 100 mg/kg and the Injection site toxicity result is on record as “substantially reduced”. For the same compound, in the series with ICR (CD-1) mice (iv), the “Multiple Dose MTD” value was “Once a day, 5 doses: >100 mg/kg” and the “Systemic toxicity / tolerability (in words)” value is “significantly less systemic toxicity than gambogic acid”. Further, the “Conversion to methyl gambogate (reversal of Michael addition) in biological media (in words)” value in series [1] (37° C., RPMI biological media) is listed as “reverse to methyl gambogate; also recorded: converted slowly”. The “Amount in biological media, 0 h” value in series [1] (solution of compound B 5 mg/ml in 87.5% RPMI 1640, 37° C., HPLC peak area, 0 h) turned out to be 92. In series [1] (solution of compound B 5 mg/ml in 87.5% RPMI 1640, 37° C., HPLC peak area, 2 h), the “Amount in biological media, 2 h” value was determined as 92. The “Amount in biological media, 18 h” value in series [1] (solution of compound B 5 mg/ml in 87.5% RPMI 1640, 37° C., HPLC peak area, 18 h) was 72. In series [1] (solution of compound B 5 mg/ml in 87.5% RPMI 1640, 37° C., HPLC peak area, 48 h), the “Amount in biological media, 48 h” value came to 49. The “Amount in biological media, 90 h” value in series [1] (solution of compound B 5 mg/ml in 87.5% RPMI 1640, 37° C., HPLC peak area, 90 h) was 28. The “% Tumor reduction” value in series [2] came to 58%. Also, the “Body weight loss / behavioral changes in efficacy studies” value in series [3] (several human tumor xenograft models) was “no significant body weight loss or abnormal behavioral changes”. Moreover, the “Efficacy (in words)” value in series [3] (summary of Table VI, gambogic acid at its maximal tolerable dose) was “good efficacy”. Also, in series [4], the “CL, Clearance” value amounted to 2.33 mL/min/kg; the “T1/2, Terminal half-life” value is 27.6 h; the “Vss, Vol. of distribution” value is listed as 2.12 L/kg. In addition, the “AUC (0-inf), Area under the curve” value in series [4] (plasma) is listed as 353,021 ng-h/ml. Also, in the series on MX-1 (Breast cancer), the “% Tumor reduction” value was 60%. Moreover, in the series with T-47D (5 h assay), the “Activity in the caspase activation / apoptosis induction assay (in words), 5 h” value is “not active” and the “Caspase activity (Ratio), 5 h” value came out at 1.2. The concentration for a half-maximal effect (EC50) in the series on T-47D (5 h assay, read-out: Caspase potency EC50, 5 h) was over 10 µM. Besides, in the series with T-47D (24 h assay), the “Activity in the caspase activation / apoptosis induction assay (in words), 24 h” value is listed as “active” and the “Caspase activity (Ratio), 24 h” value stood at 19. The EC50 with T-47D (24 h assay, read-out: Caspase potency EC50, 24 h) stood at 3.8 µM.
